# Experimental data published in patent publication US20100298141A1, “SUBSTITUTED PYRIDINE N-OXIDE HERBICIDES” (E. I. DU PONT DE NEMOURS AND COMPANY, priority 2007, published 2010).
# Columns and labels:
# Experiment in all cases: Test B flooded paddy test
# Conditions in all cases: Flood, 250 g ai/ha, 13 to 15 days; scale 0 to 100, 0 no effect, 100 complete control
# barnyardgrass = type: in vivo, Echinochloa crus-galli
# Excerpt: (§1) At time of treatment, test pots were flooded to 3 cm above the soil surface, treated by application of test compounds directly to the paddy water, and then maintained at that water depth for the duration of the test. Treated plants and controls were maintained in a greenhouse for 13 to 15 days, after which time all species were compared to controls and visually evaluated. […] A dash (-) response means no test result.
# umbrella sedge = type: in vivo, Cyperus difformis
# Excerpt: as §1
# duck salad = type: in vivo, Heteranthera limosa
# Excerpt: as §1
# rice = type: in vivo, Oryza sativa
# Excerpt: as §1
smiles,measurement,setting,value
CC(c1c(C(F)(F)F)nn(C)c1OC(F)F)S(=O)(=O)c1cccc[n+]1[O-] (stereo not shown) [Compound 5],"Plant response rating, Barnyardgrass",barnyardgrass,80
same,"Plant response rating, Umbrella Sedge",umbrella sedge,100
same,"Plant response rating, Ducksalad",duck salad,90
same,"Plant response rating, Rice, Transplanted",rice,70
